Data: publication PMC3000476, “Amino acid derivatives are substrates or non-transported inhibitors of the amino acid transporter PAT2 (slc36a2)” (Biochimica et Biophysica Acta, 2011)
Values belong to the compound of their own block, whether it stands above or below them.

Assays:
PAT2 [1] = target: T1, PAT2 (Rattus norvegicus, UniProt Q8K415); assay: competition with L-[3H]proline uptake in PAT2-expressing Xenopus oocytes; assay type: cell-based
T1 construct: gene Slc36a2

PAT2 [2] = target: T1, PAT2; assay: inhibition of L-[3H]proline uptake in PAT2-expressing Xenopus oocytes; TEVC; no trans-stimulation of efflux; assay type: cell-based
PAT2 [3] = target: T1, PAT2
PAT2 [4] = target: T1, PAT2; assay: L-[3H]pipecolic acid uptake and TEVC competition with glycine in PAT2-expressing oocytes; assay type: cell-based
PAT2 [5] = target: T1, PAT2; assay: competition with L-[3H]proline uptake in PAT2-expressing Xenopus oocytes; TEVC; assay type: cell-based
PAT2 [6] = target: T1, PAT2; assay: inhibition of L-proline-induced current (TEVC) in PAT2-expressing oocytes; also uptake inhibition IC50 […]; assay type: cell-based

T1 sequence (Q8K415 whole entry): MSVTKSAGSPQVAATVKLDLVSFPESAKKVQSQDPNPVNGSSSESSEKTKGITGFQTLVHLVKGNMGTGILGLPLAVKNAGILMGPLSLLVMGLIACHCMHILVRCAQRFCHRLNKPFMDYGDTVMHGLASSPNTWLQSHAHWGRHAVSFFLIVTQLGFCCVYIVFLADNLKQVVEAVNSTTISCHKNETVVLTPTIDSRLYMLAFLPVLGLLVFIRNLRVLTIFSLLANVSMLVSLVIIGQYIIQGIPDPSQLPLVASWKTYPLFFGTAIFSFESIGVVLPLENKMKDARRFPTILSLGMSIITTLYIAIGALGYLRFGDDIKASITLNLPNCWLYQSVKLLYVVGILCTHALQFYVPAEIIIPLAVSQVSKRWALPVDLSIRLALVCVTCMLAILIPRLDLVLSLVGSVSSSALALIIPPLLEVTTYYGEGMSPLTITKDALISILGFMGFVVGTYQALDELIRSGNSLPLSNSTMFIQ

IC50 (PAT2 [1]): 700 ± 200 µM
SMILES: O=C(O)[C@@H]1C[C@@H](O)CN1 [T4HP, trans-4-hydroxy-L-proline]

IC50 (PAT2 [2]): 1600 ± 400 µM
SMILES: N[C@@H](Cc1c[nH]c2ccc(O)cc12)C(=O)O [OH-Trp, 5-hydroxy-L-tryptophan]

SMILES: NCC(=O)O [Gly, glycine]
[3H]glycine uptake, TEVC current and trans-stimulation of L-[3H]proline efflux i (PAT2 [3]): 934 ± 22 pmol oocyte^− 1 (40 min)^− 1

L-[3H]pipecolic acid uptake (PAT2 [4]): 224 ± 19 pmol oocyte^− 1 (40 min)^− 1
SMILES: O=C(O)[C@@H]1CCCCN1 [L-Pip, L-pipecolic acid]

IC50 (PAT2 [5]): 13100 ± 4200 µM
SMILES: O=C(O)[C@H]1NCC[C@@H]1O [T3HP, trans-3-hydroxy-L-proline]

IC50 (PAT2 [6]): 2700 ± 100 µM
SMILES: CC(N)(Cc1c[nH]c2ccccc12)C(=O)O (racemic) [Me-Trp, α-methyl-D,L-tryptophan]
